The values that follow come from patent publication US10040798B2, “Pyrrolopyridazine inhibitors of IRAK4 activity” (MERCK SHARP & DOHME CORP., priority 2015, dated 2018).

Counter-ions that a name gives are not always drawn.

IRAK4, sequence (Q9NWZ3 whole entry): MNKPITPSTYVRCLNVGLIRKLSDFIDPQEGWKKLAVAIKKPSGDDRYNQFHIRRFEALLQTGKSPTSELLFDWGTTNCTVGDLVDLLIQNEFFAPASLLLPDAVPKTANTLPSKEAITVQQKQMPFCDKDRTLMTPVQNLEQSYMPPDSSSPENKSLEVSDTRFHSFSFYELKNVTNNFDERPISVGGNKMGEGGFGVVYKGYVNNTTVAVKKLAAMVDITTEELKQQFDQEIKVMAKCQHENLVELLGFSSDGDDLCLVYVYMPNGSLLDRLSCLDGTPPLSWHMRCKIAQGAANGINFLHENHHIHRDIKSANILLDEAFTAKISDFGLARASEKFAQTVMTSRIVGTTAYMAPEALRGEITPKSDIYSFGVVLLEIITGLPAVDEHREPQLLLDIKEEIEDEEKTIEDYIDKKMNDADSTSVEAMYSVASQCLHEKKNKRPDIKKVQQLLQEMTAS

This assay deals with IRAK4 (Homo sapiens (Human), UniProt Q9NWZ3). Put plainly: IRAK4 Kinase Assay (IMAP fluorescence polarization). The format is biochemical. The note with it: 0.5 nM GST tagged IRAK4, 100 μM ATP, 30 minutes at 25° C., IMAP FP. The procedure, abridged:
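GST-tagged IRAK4 (0.5 nM) phosphorylated 100 nM fluorescent peptide RP7030 with 100 μM ATP in 10 mM Tris-HCl pH 7.2, MgCl2, DTT and Tween 20 for 30 min at 25 °C. Phosphorylation was read as the increase in fluorescence polarization after binding to IMAP nanoparticles.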
In general, IC50 refers to the concentration that gives 50% inhibition. Take `N[C@@H]1[C@H](Nc2ccc3ccc(C(=O)Nc4cscc4C(F)F)n3n2)CCCC1(F)F` [Example 96, 2-{[(1R,2R)-2-amino-3,3-difluoro-cyclohexyl]amino}-N-[4-(difluoro-methyl)thiophen-3-yl]pyrrolo[1,2-b]pyridazine-7-carboxamide trifluoroacetate]: the IC50 amounted to 753 nM.

`N#Cc1sccc1NC(=O)c1ccc2ccc(N[C@@H]3CCCC[C@@H]3O)nn12` [Example 97, N-(2-cyanothiophen-3-yl)-2-{[(1R,2S)-2-hydroxycyclohexyl]amino}pyrrolo[1,2-b]pyridazine-7-carboxamide trifluoroacetate] came in with an IC50 of 1370 nM.

The compound `N#Cc1sccc1NC(=O)c1ccc2ccc(N[C@@H]3CCCC(F)(F)[C@@H]3N)nn12` [Example 98, 2-{[(1R,2R)-2-amino-3,3-difluorocyclohexyl]amino}-N-(2-cyanothiophen-3-yl)pyrrolo[1,2-b]pyridazine-7-carboxamide trifluoroacetate] had an IC50 of 526 nM.

In the case of `Cn1cc(NC(=O)c2ccc3ccc(N4CCNCC4)nn23)c(C(F)(F)F)n1` [Example 99, N-(1-Methyl-3-(trifluoromethyl)-1H-pyrazol-4-yl)-2-(piperazin-1-yl)pyrrolo[1,2-b]pyridazine-7-carboxamide], the IC50 turned out to be 63 nM.

In turn, `N#Cc1ccccc1NC(=O)c1ccc2ccc(N3CCCNCC3)nn12` [Example 100, N-(2-Cyanophenyl)-2-(1,4-diazepan-1-yl)pyrrolo[1,2-b]pyridazine-7-carboxamide] returned an IC50 of 866 nM.

On to `N#Cc1ccccc1NC(=O)c1ccc2ccc(N3CCNCC3)nn12` [Example 101, N-(2-cyanophenyl)-2-piperazin-1-ylpyrrolo[1,2-b]pyridazine-7-carboxamide trifluoroacetate], for which the IC50 turned out to be 574 nM.

Turning to `N#Cc1ccccc1NC(=O)c1ccc2ccc(N3CC4CCC3CN4)nn12` (centres unmarked) [Example 102, N-(2-cyanophenyl)-2-(2,5-diazabicyclo[2.2.2]oct-2-yl)pyrrolo[1,2-b]pyridazine-7-carboxamide trifluoroacetate], the IC50 turned out to be 461 nM.

`N#Cc1ccccc1NC(=O)c1ccc2ccc(N3CCNCC4(CC4)C3)nn12` [Example 103, N-(2-cyanophenyl)-2-(5,8-diazaspiro[2.6]non-5-yl)pyrrolo[1,2-b]pyridazine-7-carboxamide trifluoroacetate] returned an IC50 of 766 nM.

With `N#Cc1ccccc1NC(=O)c1ccc2ccc(N[C@@H]3CCCC[C@@H]3O)nn12` [Example 104, N-(2-cyanophenyl)-2-{[(1R,2S)-2-hydroxycyclohexyl]amino}pyrrolo[1,2-b]pyridazine-7-carboxamide trifluoroacetate], the midpoint of inhibition, the IC50, lay at 1860 nM.

`N#Cc1ccccc1NC(=O)c1ccc2ccc(N[C@@H]3CCCNC3)nn12` [Example 105, N-(2-cyanophenyl)-2-[(3R)-piperidin-3-ylamino]pyrrolo[1,2-b]pyridazine-7-carboxamide trifluoroacetate] returned an IC50 of 6 nM.

Take `N#Cc1ccccc1NC(=O)c1ccc2ccc(N[C@@H]3CCCC[C@@H]3N)nn12` [Example 106, 2-{[(1R,2S)-2-aminocyclohexyl]amino}-N-(2-cyanophenyl)pyrrolo [1,2-b]pyridazine-7-carboxamide trifluoroacetate]: the 50% inhibitory concentration (IC50) came to 6 nM.

As to `N#Cc1ccccc1NC(=O)c1ccc2ccc(N3CCC[C@@H](N)C3)nn12` [Example 107, 2-[(3R)-3-aminopiperidin-1-yl]-N-(2-cyanophenyl) pyrrolo[1,2-b]pyridazine-7-carboxamide trifluoroacetate], inhibition was half-maximal at 26 nM (IC50).

With `N#Cc1ccccc1NC(=O)c1ccc2ccc(N[C@@H]3CCCC(F)(F)[C@@H]3N)nn12` [Example 110, 2-{[(1R,2R)-2-amino-3,3-difluorocyclohexyl]amino}-N-(2-cyanophenyl)pyrrolo [1,2-b]pyridazine-7-carboxamide trifluoroacetate], the IC50 came out at 825 nM.

As to `O=C(Nc1ccccc1C(F)(F)F)c1ccc2ccc(N3CCCNCC3)nn12` [Example 111, 2-(1,4-Diazepan-1-yl)-N-(2-(trifluoromethyl)phenyl)pyrrolo[1,2-b]pyridazine-7-carboxamide], 1420 nM corresponded to half-maximal inhibition (IC50).

Turning to `N[C@H]1CCCC[C@H]1Nc1ccc2ccc(C(=O)Nc3ccccc3C(F)F)n2n1` [Example 112, 2-{[(1R,2S)-2-aminocyclohexyl]amino}-N-[2-(difluoromethyl)phenyl]pyrrolo[1,2-b]pyridazine-7-carboxamide trifluoroacetate], the IC50 is 472 nM.

For the compound `O=C(Nc1ccsc1C(F)(F)F)c1ccc2ccc(N3CCCNCC3)nn12` [Example 115, 2-(1,4-diazepan-1-yl)-N-[2-(trifluoromethyl)thiophen-3-yl]pyrrolo[1,2-b]pyridazine-7-carboxamide trifluoroacetate], the midpoint of inhibition, the IC50, lay at 2020 nM.

Compound `N[C@H]1CCCC[C@H]1Nc1ccc2ccc(C(=O)Nc3ccsc3C(F)(F)F)n2n1` [Example 116, 2-{[1R,2S)-2-aminocyclohexyl] amino}-N-[2-(trifluoromethyl) thiophen-3-yl] pyrrolo[1,2-b]pyridazine-7-carboxamide trifluoroacetate] had an IC50 of 221 nM.

Compound `N[C@@H]1[C@H](Nc2ccc3ccc(C(=O)Nc4ccsc4C(F)(F)F)n3n2)CCCC1(F)F` [Example 117, 2-{[(1R,2R)-2-amino-3,3-difluorocyclohexyyl]amino}-N-[2-(trifluoromethyl)thiophen-3-yl]pyrrolo[1,2-b]pyridazine-7-carboxamide trifluoroacetate] displayed an IC50 of 2980 nM.

For the compound `N[C@@H]1[C@H](Nc2ccc3ccc(C(=O)Nc4ccccc4C(F)F)n3n2)CCCC1(F)F` [Example 118, 2-{[(1R,2R)-2-amino-3,3-difluorocyclohexyl]amino}-N-[2-(difluoromethyl)phenyl]pyrrolo[1,2-b]pyridazine-7-carboxamide trifluoroacetate], the half-inhibitory concentration (IC50) came to 7390 nM.

`Cn1cc(NC(=O)c2ccc3ccc(N4C5CCC4CNC5)nn23)c(C(F)F)n1` [Example 119, 2-(3,8-Diazabicyclo[3.2.1]octan-8-yl)-N-(3-(difluoromethyl)-1-methyl-1H-pyrazol-4-yl)pyrrolo[1,2-b]pyridazine-7-carboxamide] came in with an IC50 of 0.5 nM.

In turn, `Cn1cc(NC(=O)c2ccc3ccc(N4C5CCC4CNC5)nn23)c(C(F)(F)F)n1` [Example 120, 2-(3,8-diazabicyclo[3.2.1]oct-8-yl)-N-[1-methyl-3-(trifluoromethyl)-1H-pyrazol-4-yl]pyrrolo[1,2-b]pyridazine-7-carboxamide trifluoroacetate] had an IC50 of 2 nM.

As for `Cn1cc(NC(=O)c2ccc3ccc(N4C[C@@H]5CNC[C@H]4C5)nn23)c(C(F)(F)F)n1` [Example 122, 2-[(1S,5R)-(1R,5S)-3,6-diazabicyclo[3.2.1]oct-6-yl]-N-[1-methyl-3-(trifluoromethyl)-1H-pyrazol-4-yl]pyrrolo[1,2-b]pyridazine-7-carboxamide], the IC50 was found to be 39 nM.

`Cn1cc(NC(=O)c2ccc3ccc(N4C[C@H]5CNC[C@@H]4C5)nn23)c(C(F)(F)F)n1` [Example 123, 2-[(1S,5R)-(1R,5S)-3,6-diazabicyclo[3.2.1]oct-6-yl]-N-[1-methyl-3-(trifluoromethyl)-1H-pyrazol-4-yl]pyrrolo[1,2-b]pyridazine-7-carboxamide] came in with an IC50 of 114 nM.
